Results reported in patent US9840495B2, “Oxindole derivatives carrying a piperidyl-substituted azetidinyl substituent and use thereof for treating vasopressine-related diseases” (AbbVie Deutschland GmbH & Co. KG, priority 2013, dated 2017).
pKi: −log10 of the molar value.

How the values were obtained:
[1] = target: T1, human vasopressin V1b receptor (Homo sapiens, UniProt P47901); test: biochemical
T1 sequence (P47901 1-424): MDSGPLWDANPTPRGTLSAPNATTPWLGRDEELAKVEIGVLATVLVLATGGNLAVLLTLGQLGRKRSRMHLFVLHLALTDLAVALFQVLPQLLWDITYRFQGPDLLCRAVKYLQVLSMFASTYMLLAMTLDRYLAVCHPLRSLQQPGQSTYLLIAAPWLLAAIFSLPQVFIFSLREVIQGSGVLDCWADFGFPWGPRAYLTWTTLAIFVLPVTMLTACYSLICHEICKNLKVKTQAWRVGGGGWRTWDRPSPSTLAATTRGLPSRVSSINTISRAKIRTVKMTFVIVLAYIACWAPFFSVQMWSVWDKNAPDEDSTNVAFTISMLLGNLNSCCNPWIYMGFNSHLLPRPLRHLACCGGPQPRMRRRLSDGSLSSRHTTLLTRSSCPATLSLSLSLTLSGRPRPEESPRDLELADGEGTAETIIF

[2] = target: human vasopressin V1a receptor (Homo sapiens, UniProt P37288); test: Vasopressin V1a receptor binding assay (125I-AVP displacement, CHO-K1 membranes); conditions: selectivity quotient, human V1a vs human V1b receptor binding
Sequence of human vasopressin V1a receptor (P37288 whole entry): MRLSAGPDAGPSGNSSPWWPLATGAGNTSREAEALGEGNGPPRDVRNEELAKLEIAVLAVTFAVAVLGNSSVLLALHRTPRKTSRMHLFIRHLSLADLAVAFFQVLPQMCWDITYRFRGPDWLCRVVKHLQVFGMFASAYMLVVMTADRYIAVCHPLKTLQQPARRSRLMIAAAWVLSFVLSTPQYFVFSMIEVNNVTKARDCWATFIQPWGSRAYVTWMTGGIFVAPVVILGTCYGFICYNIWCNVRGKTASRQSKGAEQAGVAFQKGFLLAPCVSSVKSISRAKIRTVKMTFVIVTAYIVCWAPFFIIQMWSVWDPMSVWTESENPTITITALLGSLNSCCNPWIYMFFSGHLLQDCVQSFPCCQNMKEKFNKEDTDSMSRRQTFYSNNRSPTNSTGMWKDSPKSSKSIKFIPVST

Structure (SMILES)	pKi [1]	Ki(h-V1a)/Ki(h-V1b) [2]
COc1ccccc1S(=O)(=O)N1C(=O)[C@@](NC(=O)N2CC(N3CCC(N(C)C4COC4)CC3)C2)(c2cccnc2OC)c2cc(C#N)ccc21 [Example 29, (S)—N-(5-Cyano-1-((2-methoxyphenyl)sulfonyl)-3-(2-methoxypyridin-3-yl)-2-oxoindolin-3-yl)-3-(4-(methyl(oxetan-3-yl)amino)piperidin-1-yl)azetidine-1-carboxamide]	8.00 to 9.00	+ (10-<25)
COc1cc(F)ccc1S(=O)(=O)N1C(=O)[C@@](NC(=O)N2CC(N3CCC(N(C)C4COC4)CC3)C2)(c2cccnc2OC)c2cc(C#N)ccc21 [Example 30, (S)—N-(5-Cyano-1-((4-fluoro-2-methoxyphenyl)sulfonyl)-3-(2-methoxypyridin-3-yl)-2-oxoindolin-3-yl)-3-(4-(methyl(oxetan-3-yl)amino)piperidin-1-yl)azetidine-1-carboxamide]	8.00 to 9.00	+ (10-<25)
CCOc1ncccc1[C@]1(NC(=O)N2CC(N3CCC(N4CC(F)(F)C4)CC3)C2)C(=O)N(S(=O)(=O)c2ccc(OC)cc2OC)c2ccc(C#N)cc21 [Example 39, (S)—N-(5-Cyano-1-((2,4-dimethoxyphenyl)sulfonyl)-3-(2-ethoxypyridin-3-yl)-2-oxoindolin-3-yl)-3-(4-(3,3-difluoroazetidin-1-yl)piperidin-1-yl)azetidine-1-carboxamide]	7.00 to 8.00	+++ (>75)
COc1ccc(S(=O)(=O)N2C(=O)[C@@](NC(=O)N3CC(N4CCC(N(C)C5COC5)CC4)C3)(c3cccnc3OC)c3cc(C#N)ccc32)c(OC)c1 [Example 4, (S)—N-(5-Cyano-1-((2,4-dimethoxyphenyl)sulfonyl)-3-(2-methoxypyridin-3-yl)-2-oxoindolin-3-yl)-3-(4-(methyl(oxetan-3-yl)amino)piperidin-1-yl)azetidine-1-carboxamide]	8.00 to 9.00	+++ (>75)
CCOc1ncccc1[C@]1(NC(=O)N2CC(N3CCC(N4CCC(OC)CC4)CC3)C2)C(=O)N(S(=O)(=O)c2ccc(OC)cc2OC)c2ccc(C#N)cc21 [Example 42, (S)—N-(5-Cyano-1-((2,4-dimethoxyphenyl)sulfonyl)-3-(2-ethoxypyridin-3-yl)-2-oxoindolin-3-yl)-3-(4-methoxy-[1,4′-bipiperidin]-1′-yl)azetidine-1-carboxamide]	8.00 to 9.00	+++ (>75)
COc1ncccc1[C@]1(NC(=O)N2CC(N3CCC(N(C)C4COC4)CC3)C2)C(=O)N(S(=O)(=O)c2ccc(F)cc2F)c2ccc(C#N)cc21 [Example 33, (S)—N-(5-Cyano-1-((2,4-difluorophenyl)sulfonyl)-3-(2-methoxypyridin-3-yl)-2-oxoindolin-3-yl)-3-(4-(methyl(oxetan-3-yl)amino)piperidin-1-yl)azetidine-1-carboxamide]	7.00 to 8.00	+ (10-<25)
COc1ncccc1[C@]1(NC(=O)N2CC(N3CCC(N(C)C4COC4)CC3)C2)C(=O)N(S(=O)(=O)c2ccc(F)cc2)c2ccc(C#N)cc21 [Example 31, (S)—N-(5-Cyano-1-((4-fluorophenyl)sulfonyl)-3-(2-methoxypyridin-3-yl)-2-oxoindolin-3-yl)-3-(4-(methyl(oxetan-3-yl)amino)piperidin-1-yl)azetidine-1-carboxamide]	8.00 to 9.00	+ (10-<25)
CCOc1ncccc1[C@]1(NC(=O)N2CC(N3CCC(N(CC)C4COC4)CC3)C2)C(=O)N(S(=O)(=O)c2ccc(OC)cc2OC)c2ccc(C#N)cc21 [Example 5, (S)—N-(5-Cyano-1-((2,4-dimethoxyphenyl)sulfonyl)-3-(2-ethoxypyridin-3-yl)-2-oxoindolin-3-yl)-3-(4-(ethyl(oxetan-3-yl)amino)piperidin-1-yl)azetidine-1-carboxamide]	8.00 to 9.00	+++ (>75)
CCOc1ncccc1[C@]1(NC(=O)N2CC(N3CCC(N4CCC5(CC4)COC5)CC3)C2)C(=O)N(S(=O)(=O)c2ccc(OC)cc2OC)c2ccc(C#N)cc21 [Example 6, (S)-3-(4-(2-Oxa-7-Azaspiro[3.5]nonan-7-yl)piperidin-1-yl)-N-(5-cyano-1-((2,4-dimethoxyphenyl)sulfonyl)-3-(2-ethoxypyridin-3-yl)-2-oxoindolin-3-yl)azetidine-1-carboxamide]	8.00 to 9.00	+++ (>75)
CCOc1ncccc1[C@]1(NC(=O)N2CC(N3CCC(N4CC(O)C4)CC3)C2)C(=O)N(S(=O)(=O)c2ccc(OC)cc2OC)c2ccc(C#N)cc21 [Example 43, (S)—N-(5-Cyano-1-((2,4-dimethoxyphenyl)sulfonyl)-3-(2-ethoxypyridin-3-yl)-2-oxoindolin-3-yl)-3-(4-(3-hydroxyazetidin-1-yl)piperidin-1-yl)azetidine-1-carboxamide]	8.00 to 9.00	+++ (>75)
CCOc1ncccc1[C@]1(NC(=O)N2CC(N3CCC(N4CCOCC4)CC3)C2)C(=O)N(S(=O)(=O)c2ccc(F)cc2F)c2ccc(C#N)cc21 [Example 26, (S)—N-(5-Cyano-1-((2,4-difluorophenyl)sulfonyl)-3-(2-ethoxypyridin-3-yl)-2-oxoindolin-3-yl)-3-(4-morpholinopiperidin-1-yl)azetidine-1-carboxamide]	8.00 to 9.00	

Results, then the molecule that gave them:

pKi [1]	Ki(h-V1a)/Ki(h-V1b) [2]	Structure (SMILES)
> 9.00	+++ (>75)	CCOc1ncccc1[C@]1(NC(=O)N2CC(N3CCC(N4CCC(O)CC4)CC3)C2)C(=O)N(S(=O)(=O)c2ccc(OC)cc2OC)c2ccc(C#N)cc21 [Example 44, (S)—N-(5-Cyano-1-((2,4-dimethoxyphenyl)sulfonyl)-3-(2-ethoxypyridin-3-yl)-2-oxoindolin-3-yl)-3-(4-hydroxy-[1,4′-bipiperidin]-1′-yl)azetidine-1-carboxamide]
8.00 to 9.00	+++ (>75)	CCOc1ncccc1[C@]1(NC(=O)N2CC(N3CCC(N4CCOCC4)CC3)C2)C(=O)N(S(=O)(=O)c2cc(F)c(OC)cc2OC)c2ccc(C#N)cc21 [Example 24, (S)—N-(5-Cyano-3-(2-ethoxypyridin-3-yl)-1-((5-fluoro-2,4-dimethoxyphenyl)sulfonyl)-2-oxoindolin-3-yl)-3-(4-morpholinopiperidin-1-yl)azetidine-1-carboxamide]
> 9.00	++ (25-75)	CCOc1ncccc1[C@]1(NC(=O)N2CC(N3CCC(N4CCOCC4)CC3)C2)C(=O)N(S(=O)(=O)c2ccc(OC)cc2)c2ccc(C#N)cc21 [Example 25, (S)—N-(5-Cyano-3-(2-ethoxypyridin-3-yl)-1-((4-methoxyphenyl)sulfonyl)-2-oxoindolin-3-yl)-3-(4-morpholinopiperidin-1-yl)azetidine-1-carboxamide]
> 9.00	+++ (>75)	COc1ccc(S(=O)(=O)N2C(=O)[C@@](NC(=O)N3CC(N4CCC(N5CCOCC5)CC4)C3)(c3cccnc3OC)c3cc(C#N)ccc32)c(OC)c1 [Example 3, (S)—N-(5-Cyano-1-((2,4-dimethoxyphenyl)sulfonyl)-3-(2-methoxypyridin-3-yl)-2-oxoindolin-3-yl)-3-(4-morpholinopiperidin-1-yl)azetidine-1-carboxamide]
> 9.00	+++ (>75)	CCOc1ncccc1[C@]1(NC(=O)N2CC(N3CCC(N4CCC(F)(F)CC4)CC3)C2)C(=O)N(S(=O)(=O)c2ccc(OC)cc2OC)c2ccc(C#N)cc21 [Example 40, (S)—N-(5-Cyano-1-((2,4-dimethoxyphenyl)sulfonyl)-3-(2-ethoxypyridin-3-yl)-2-oxoindolin-3-yl)-3-(4,4-difluoro-[1,4′-bipiperidin]-1′-yl)azetidine-1-carboxamide]
> 9.00	++ (25-75)	CCOc1ncccc1[C@]1(NC(=O)N2CC(N3CCC(N4CCOCC4)CC3)C2)C(=O)N(S(=O)(=O)c2ccc(OC)cc2OC)c2cc(F)c(C#N)cc21 [Example 9, (S)—N-(5-Cyano-1-((2,4-dimethoxyphenyl)sulfonyl)-3-(2-ethoxypyridin-3-yl)-6-fluoro-2-oxoindolin-3-yl)-3-(4-morpholinopiperidin-1-yl)azetidine-1-carboxamide]
> 9.00		CCOc1ncccc1[C@]1(NC(=O)N2CC(N3CCC(N(C)C4COC4)CC3)C2)C(=O)N(S(=O)(=O)c2ccc(OC)cc2OC)c2ccc(Cl)cc21 [Example 14, (S)—N-(5-Chloro-1-((2,4-dimethoxyphenyl)sulfonyl)-3-(2-ethoxypyridin-3-yl)-2-oxoindolin-3-yl)-3-(4-(methyl(oxetan-3-yl)amino)piperidin-1-yl)azetidine-1-carboxamide]
> 9.00	++ (25-75)	COc1ccc(S(=O)(=O)N2C(=O)[C@@](NC(=O)N3CC(N4CCC(N(C)C5COC5)CC4)C3)(c3cc(OC)ccc3OC)c3cc(C#N)ccc32)c(OC)c1 [Example 46, (S)—N-(5-Cyano-3-(2,5-dimethoxyphenyl)-1-((2,4-dimethoxyphenyl)sulfonyl)-2-oxoindolin-3-yl)-3-(4-(methyl(oxetan-3-yl)amino)piperidin-1-yl)azetidine-1-carboxamide]
> 9.00		CCOc1ncccc1[C@]1(NC(=O)N2CC(N3CCC(N4CCOCC4)CC3)C2)C(=O)N(S(=O)(=O)c2ccc(OC)cc2OC)c2ccc(Cl)cc21 [Example 13, (S)—N-(5-Chloro-1-((2,4-dimethoxyphenyl)sulfonyl)-3-(2-ethoxypyridin-3-yl)-2-oxoindolin-3-yl)-3-(4-morpholinopiperidin-1-yl)azetidine-1-carboxamide]
